{"source": "patent US12568972B2", "about": "“Pyridazinol compounds and derivatives, preparation methods, herbicidal compositions and applications thereof” (Qingdao Kingagroot Chemical Compound Co., Ltd., priority 2018, dated 2026)", "data": [{"test_system": "Amaranthus retroflexus", "assay": "Post-emergence test, weed control effect", "assay_type": "in vivo", "conditions": "Dose 3000 g/ha, after 3 weeks", "from_the_text": "(§1) The activity level standard of harmful plant destruction (i.e. growth inhibition rate) is as follows: • Level 10: completely dead; • Level 9: above 90% growth inhibition rate; • Level 8: above 80% growth inhibition rate; • Level 7: above 70% growth inhibition rate; • Level 6: above 60% growth inhibition rate; • Level 5: above 50% growth inhibition rate; • Level 4: above 40% growth inhibition rate; • Level 3: above 30% growth inhibition rate; • Level 2: above 20% growth inhibition rate; • Level 1: below 20% growth inhibition rate; • Level 0: no effect.\n(§2) The above described growth inhibition rates are fresh weight inhibition rates.\n(§3) Experiment of post-emergence test: monocotyledonous and dicotyledonous weed seeds as well as main crop seeds (i.e., wheat, corn, rice, soybean, cotton, oilseed rape, millet and sorghum) were put into a plastic pot loaded with soil, then covered with 0.5-2 cm of soil, and the seeds were allowed to grow in good greenhouse environment. The test plants were treated at 2-3 leaf stage 2-3 weeks after sowing. The test compounds of the invention were dissolved in acetone respectively, then added with Tween-80 and diluted by a certain amount of water to give solutions with certain concentrations, and added with 80% vegetable oil methyl ester synergist at 1500 g/ha. The solution was sprayed to the plants with a sprayer. The plants were cultured for 3 weeks in the greenhouse.", "values": [{"smiles": "O=C(Oc1cc(C(F)(F)F)nnc1-c1ccc(F)cc1)c1cc(F)cc(F)c1F", "note": "[Compound 1-93]", "weed control effect, Amaranthus retroflexus (activity level)": 10}, {"smiles": "Oc1cc(C(F)(F)F)nnc1-c1cc(C(F)(F)F)co1", "note": "[Compound 418]", "weed control effect (activity level), Amaranthus retroflexus": 10}, {"smiles": "CCCOC(=S)Oc1cc(C(F)(F)F)nnc1-c1ccc(OC)cc1", "note": "[Compound 1-156]", "weed control effect, Amaranthus retroflexus (activity level)": 10}, {"smiles": "COc1ccc(OCC(=O)Oc2cc(C(F)(F)F)nnc2-c2ccc(F)cc2)cc1", "note": "[Compound 1-101]", "weed control effect, Amaranthus retroflexus (activity level)": 10}, {"smiles": "Cn1nc(C#N)cc1-c1nnc(C(F)(F)F)cc1O", "note": "[Compound 791]", "weed control effect (activity level), Amaranthus retroflexus": 10}, {"smiles": "Cn1cncc1-c1nnc(C(F)(F)F)cc1O", "note": "[Compound 857]", "weed control effect (activity level), Amaranthus retroflexus": 10}, {"smiles": "Oc1cc(C(F)(F)F)nnc1-c1cncc(Cl)c1", "note": "[Compound 770]", "weed control effect (activity level), Amaranthus retroflexus": 10}, {"smiles": "O=C(Oc1cc(C(F)(F)F)nnc1-c1ccc(F)c(F)c1)c1ccco1", "note": "[Compound 1-104]", "weed control effect, Amaranthus retroflexus (activity level)": 10}, {"smiles": "O=C(COc1cc(C(F)(F)F)nnc1-c1ccc(F)c(F)c1)c1ccccc1", "note": "[Compound 1-213]", "weed control effect, Amaranthus retroflexus (activity level)": 10}, {"smiles": "Oc1cc(C(F)(F)F)nnc1-c1ccc(I)nc1", "note": "[Compound 970]", "weed control effect (activity level), Amaranthus retroflexus": 10}, {"smiles": "Oc1cc(C(F)(F)F)nnc1-c1cccnc1I", "note": "[Compound 969]", "weed control effect (activity level), Amaranthus retroflexus": 10}, {"smiles": "Oc1cc(C(F)(F)F)nnc1-c1c(F)ccnc1F", "note": "[Compound 987]", "weed control effect (activity level), Amaranthus retroflexus": 10}, {"smiles": "O=C(Oc1cc(C(F)(F)F)nnc1-c1ccc(Cl)cc1)c1cc(Cl)nc(Cl)n1", "note": "[Compound 1-111]", "weed control effect, Amaranthus retroflexus (activity level)": 10}, {"smiles": "O=S(=O)(Oc1cc(C(F)(F)F)nnc1-c1ccc(C(F)(F)F)cc1)c1ccc2oncc2c1", "note": "[Compound 1-148]", "weed control effect, Amaranthus retroflexus (activity level)": 10}, {"smiles": "CC(C)(C)CSC(=O)Oc1cc(C(F)(F)F)nnc1-c1cccc(Br)c1", "note": "[Compound 1-51]", "weed control effect, Amaranthus retroflexus (activity level)": 10}, {"smiles": "O=S(=O)(Cc1ccccc1)Oc1cc(C(F)(F)F)nnc1-c1ccc(F)cc1", "note": "[Compound 1-143]", "weed control effect, Amaranthus retroflexus (activity level)": 10}]}, {"test_system": "Chenopodiaceae", "assay": "Post-emergence test, weed control effect", "assay_type": "in vivo", "conditions": "Dose 3000 g/ha, after 3 weeks", "from_the_text": "as §1, §2, §3", "values": [{"smiles": "O=C(Oc1cc(C(F)(F)F)nnc1-c1ccc(F)cc1)c1cc(F)cc(F)c1F", "note": "[Compound 1-93]", "weed control effect, Chenopodiaceae (activity level)": 10}, {"smiles": "Oc1cc(C(F)(F)F)nnc1-c1cc(C(F)(F)F)co1", "note": "[Compound 418]", "weed control effect (activity level), Chenopodiaceae": 10}, {"smiles": "CCCOC(=S)Oc1cc(C(F)(F)F)nnc1-c1ccc(OC)cc1", "note": "[Compound 1-156]", "weed control effect, Chenopodiaceae (activity level)": 10}, {"smiles": "COc1ccc(OCC(=O)Oc2cc(C(F)(F)F)nnc2-c2ccc(F)cc2)cc1", "note": "[Compound 1-101]", "weed control effect, Chenopodiaceae (activity level)": 10}, {"smiles": "Cn1nc(C#N)cc1-c1nnc(C(F)(F)F)cc1O", "note": "[Compound 791]", "weed control effect (activity level), Chenopodiaceae": 10}, {"smiles": "Cn1cncc1-c1nnc(C(F)(F)F)cc1O", "note": "[Compound 857]", "weed control effect (activity level), Chenopodiaceae": 10}, {"smiles": "Oc1cc(C(F)(F)F)nnc1-c1cncc(Cl)c1", "note": "[Compound 770]", "weed control effect (activity level), Chenopodiaceae": 10}, {"smiles": "O=C(Oc1cc(C(F)(F)F)nnc1-c1ccc(F)c(F)c1)c1ccco1", "note": "[Compound 1-104]", "weed control effect, Chenopodiaceae (activity level)": 10}, {"smiles": "O=C(COc1cc(C(F)(F)F)nnc1-c1ccc(F)c(F)c1)c1ccccc1", "note": "[Compound 1-213]", "weed control effect, Chenopodiaceae (activity level)": 10}, {"smiles": "Oc1cc(C(F)(F)F)nnc1-c1ccc(I)nc1", "note": "[Compound 970]", "weed control effect (activity level), Chenopodiaceae": 10}, {"smiles": "Oc1cc(C(F)(F)F)nnc1-c1cccnc1I", "note": "[Compound 969]", "weed control effect (activity level), Chenopodiaceae": 10}, {"smiles": "Oc1cc(C(F)(F)F)nnc1-c1c(F)ccnc1F", "note": "[Compound 987]", "weed control effect (activity level), Chenopodiaceae": 10}, {"smiles": "O=C(Oc1cc(C(F)(F)F)nnc1-c1ccc(Cl)cc1)c1cc(Cl)nc(Cl)n1", "note": "[Compound 1-111]", "weed control effect, Chenopodiaceae (activity level)": 10}, {"smiles": "O=S(=O)(Oc1cc(C(F)(F)F)nnc1-c1ccc(C(F)(F)F)cc1)c1ccc2oncc2c1", "note": "[Compound 1-148]", "weed control effect, Chenopodiaceae (activity level)": 10}, {"smiles": "CC(C)(C)CSC(=O)Oc1cc(C(F)(F)F)nnc1-c1cccc(Br)c1", "note": "[Compound 1-51]", "weed control effect, Chenopodiaceae (activity level)": 10}, {"smiles": "O=S(=O)(Cc1ccccc1)Oc1cc(C(F)(F)F)nnc1-c1ccc(F)cc1", "note": "[Compound 1-143]", "weed control effect, Chenopodiaceae (activity level)": 10}]}, {"test_system": "Rorippa indica", "assay": "Post-emergence test, weed control effect", "assay_type": "in vivo", "conditions": "Dose 3000 g/ha, after 3 weeks", "from_the_text": "as §1, §2, §3", "values": [{"smiles": "O=C(Oc1cc(C(F)(F)F)nnc1-c1ccc(F)cc1)c1cc(F)cc(F)c1F", "note": "[Compound 1-93]", "weed control effect, Rorippa indica (activity level)": 10}, {"smiles": "Oc1cc(C(F)(F)F)nnc1-c1cc(C(F)(F)F)co1", "note": "[Compound 418]", "weed control effect (activity level), Rorippa indica": 10}, {"smiles": "CCCOC(=S)Oc1cc(C(F)(F)F)nnc1-c1ccc(OC)cc1", "note": "[Compound 1-156]", "weed control effect, Rorippa indica (activity level)": 10}, {"smiles": "COc1ccc(OCC(=O)Oc2cc(C(F)(F)F)nnc2-c2ccc(F)cc2)cc1", "note": "[Compound 1-101]", "weed control effect, Rorippa indica (activity level)": 10}, {"smiles": "Cn1nc(C#N)cc1-c1nnc(C(F)(F)F)cc1O", "note": "[Compound 791]", "weed control effect (activity level), Rorippa indica": 10}, {"smiles": "Cn1cncc1-c1nnc(C(F)(F)F)cc1O", "note": "[Compound 857]", "weed control effect (activity level), Rorippa indica": 10}, {"smiles": "Oc1cc(C(F)(F)F)nnc1-c1cncc(Cl)c1", "note": "[Compound 770]", "weed control effect (activity level), Rorippa indica": 10}, {"smiles": "O=C(Oc1cc(C(F)(F)F)nnc1-c1ccc(F)c(F)c1)c1ccco1", "note": "[Compound 1-104]", "weed control effect, Rorippa indica (activity level)": 10}, {"smiles": "O=C(COc1cc(C(F)(F)F)nnc1-c1ccc(F)c(F)c1)c1ccccc1", "note": "[Compound 1-213]", "weed control effect, Rorippa indica (activity level)": 10}, {"smiles": "Oc1cc(C(F)(F)F)nnc1-c1ccc(I)nc1", "note": "[Compound 970]", "weed control effect (activity level), Rorippa indica": 10}, {"smiles": "Oc1cc(C(F)(F)F)nnc1-c1cccnc1I", "note": "[Compound 969]", "weed control effect (activity level), Rorippa indica": 10}, {"smiles": "Oc1cc(C(F)(F)F)nnc1-c1c(F)ccnc1F", "note": "[Compound 987]", "weed control effect (activity level), Rorippa indica": 10}, {"smiles": "O=C(Oc1cc(C(F)(F)F)nnc1-c1ccc(Cl)cc1)c1cc(Cl)nc(Cl)n1", "note": "[Compound 1-111]", "weed control effect, Rorippa indica (activity level)": 10}, {"smiles": "O=S(=O)(Oc1cc(C(F)(F)F)nnc1-c1ccc(C(F)(F)F)cc1)c1ccc2oncc2c1", "note": "[Compound 1-148]", "weed control effect, Rorippa indica (activity level)": 10}, {"smiles": "CC(C)(C)CSC(=O)Oc1cc(C(F)(F)F)nnc1-c1cccc(Br)c1", "note": "[Compound 1-51]", "weed control effect, Rorippa indica (activity level)": 10}, {"smiles": "O=S(=O)(Cc1ccccc1)Oc1cc(C(F)(F)F)nnc1-c1ccc(F)cc1", "note": "[Compound 1-143]", "weed control effect, Rorippa indica (activity level)": 10}]}, {"test_system": "Veronica polita", "assay": "Post-emergence test, weed control effect", "assay_type": "in vivo", "conditions": "Dose 3000 g/ha, after 3 weeks", "from_the_text": "as §1, §2, §3", "values": [{"smiles": "O=C(Oc1cc(C(F)(F)F)nnc1-c1ccc(F)cc1)c1cc(F)cc(F)c1F", "note": "[Compound 1-93]", "weed control effect, Veronica polita (activity level)": 10}, {"smiles": "Oc1cc(C(F)(F)F)nnc1-c1cc(C(F)(F)F)co1", "note": "[Compound 418]", "weed control effect (activity level), Veronica polita": 10}, {"smiles": "CCCOC(=S)Oc1cc(C(F)(F)F)nnc1-c1ccc(OC)cc1", "note": "[Compound 1-156]", "weed control effect, Veronica polita (activity level)": 10}, {"smiles": "COc1ccc(OCC(=O)Oc2cc(C(F)(F)F)nnc2-c2ccc(F)cc2)cc1", "note": "[Compound 1-101]", "weed control effect, Veronica polita (activity level)": 10}, {"smiles": "Cn1nc(C#N)cc1-c1nnc(C(F)(F)F)cc1O", "note": "[Compound 791]", "weed control effect (activity level), Veronica polita": 10}, {"smiles": "Cn1cncc1-c1nnc(C(F)(F)F)cc1O", "note": "[Compound 857]", "weed control effect (activity level), Veronica polita": 10}, {"smiles": "Oc1cc(C(F)(F)F)nnc1-c1cncc(Cl)c1", "note": "[Compound 770]", "weed control effect (activity level), Veronica polita": 10}, {"smiles": "O=C(Oc1cc(C(F)(F)F)nnc1-c1ccc(F)c(F)c1)c1ccco1", "note": "[Compound 1-104]", "weed control effect, Veronica polita (activity level)": 10}, {"smiles": "O=C(COc1cc(C(F)(F)F)nnc1-c1ccc(F)c(F)c1)c1ccccc1", "note": "[Compound 1-213]", "weed control effect, Veronica polita (activity level)": 10}, {"smiles": "Oc1cc(C(F)(F)F)nnc1-c1ccc(I)nc1", "note": "[Compound 970]", "weed control effect (activity level), Veronica polita": 10}, {"smiles": "Oc1cc(C(F)(F)F)nnc1-c1cccnc1I", "note": "[Compound 969]", "weed control effect (activity level), Veronica polita": 10}, {"smiles": "Oc1cc(C(F)(F)F)nnc1-c1c(F)ccnc1F", "note": "[Compound 987]", "weed control effect (activity level), Veronica polita": 10}, {"smiles": "O=C(Oc1cc(C(F)(F)F)nnc1-c1ccc(Cl)cc1)c1cc(Cl)nc(Cl)n1", "note": "[Compound 1-111]", "weed control effect, Veronica polita (activity level)": 10}, {"smiles": "O=S(=O)(Oc1cc(C(F)(F)F)nnc1-c1ccc(C(F)(F)F)cc1)c1ccc2oncc2c1", "note": "[Compound 1-148]", "weed control effect, Veronica polita (activity level)": 10}, {"smiles": "CC(C)(C)CSC(=O)Oc1cc(C(F)(F)F)nnc1-c1cccc(Br)c1", "note": "[Compound 1-51]", "weed control effect, Veronica polita (activity level)": 10}, {"smiles": "O=S(=O)(Cc1ccccc1)Oc1cc(C(F)(F)F)nnc1-c1ccc(F)cc1", "note": "[Compound 1-143]", "weed control effect, Veronica polita (activity level)": 10}]}]}
